# Tests used:
# [1] = target: T1, CCoAOMT (caffeoyl CoA O-methyltransferase) (Medicago sativa, UniProt Q40313); test: HPLC assay of feruloyl CoA formation; assay type: biochemical; conditions: 20, 30 or 40 µM caffeoyl CoA; 200 µM S-adenosyl methionine, 600 µM MgCl2, 2 mM DTT, pH 7.5, 30 °C
# T1 construct: gene CCOMT; alfalfa cDNA in pET15b, His-tagged, expressed in E. coli Rosetta, Ni-NTA purified; tag removal not mentioned
# [2] = target: T1, CCoAOMT (caffeoyl CoA O-methyltransferase); test: HPLC assay of feruloyl CoA formation; assay type: biochemical; conditions: putative activator; 2 µM caffeyl aldehyde, 20 µM caffeoyl CoA, 200 µM S-adenosyl methionine, 600 µM MgCl2, 2 mM DTT, 4% DMSO, pH 7.5, 30 °C
# T1 sequence (Q40313 whole entry): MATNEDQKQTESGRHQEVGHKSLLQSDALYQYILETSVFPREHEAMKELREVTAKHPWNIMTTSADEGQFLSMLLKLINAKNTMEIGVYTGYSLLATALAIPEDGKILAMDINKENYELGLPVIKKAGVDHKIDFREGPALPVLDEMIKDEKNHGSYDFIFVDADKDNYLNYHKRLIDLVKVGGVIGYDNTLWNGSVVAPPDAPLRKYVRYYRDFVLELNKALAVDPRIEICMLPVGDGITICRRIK
Structure (SMILES),HPLC assay of feruloyl CoA formation [1],% increase in activity at 2 μM [2] [%]
CC(C)(COP(=O)(O)OP(=O)(O)OC[C@H]1O[C@@H](n2cnc3c(N)ncnc32)[C@H](O)[C@@H]1OP(=O)(O)O)[C@@H](O)C(=O)NCCC(=O)NCCSC(=O)/C=C/c1ccc(O)c(O)c1 [caffeoyl CoA],assayed the purified recombinant enzyme with caffeoyl CoA as substrate,
O=C/C=C/c1ccc(O)c(O)c1 [caffeyl aldehyde],,16
